Measurements reported in paper PMC11024979 (ACS Omega, 2024).
Where two headings read alike, the source gives them in different places.

Tests used:
[1] = target: anti-cortisol (17) Fab fragment; assay: Surface plasmon resonance; type: binding, murine; settings: read-out: KD (SPR); determined in this work
[2] = system: anti-cortisol (17) Fab fragment; assay: Native MS direct ligand titration, KD by one-site binding fit; parameters: species or system murine; settings: native MS KD ratio
[3] = target: anti-cortisol (17) Fab fragment; assay: Initial ligand screening by native MS; type: binding, murine; settings: Fab 0.1 μM, ligand 100 nM to 10 μM
[4] = target: anti-cortisol (17) Fab fragment; settings: read-out: KD (SPR); determined in previous work ref 9; cited from earlier work

Structure (SMILES) | Kd [1] [nM] | fold higher KD compared to corticosterone [2] | approximate KD range from initial ligand screening [3] | Kd [4] [nM]
C[C@]12CCC(=O)C=C1CC[C@@H]1[C@@H]2CC[C@@]2(C)[C@H]1CC[C@]2(O)C(=O)CO [11-deoxycortisol] | 120 | more than 4 fold | submicromolar affinity | 
C[C@]12C[C@H](O)[C@H]3[C@@H](CCC4=CC(=O)CC[C@@]43C)[C@@H]1CC[C@@H]2C(=O)CO [corticosterone] |  |  | nanomolar range | 31 ± 2
C[C@]12CCC(=O)C=C1CC[C@@H]1[C@@H]2[C@@H](O)C[C@@]2(C)[C@H]1CC[C@]2(O)C(=O)CO [cortisol] |  |  | nanomolar range | 7 ± 1
C[C@]12C=CC(=O)C=C1CC[C@@H]1[C@@H]2[C@@H](O)C[C@@]2(C)[C@H]1CC[C@]2(O)C(=O)CO [prednisolone] |  |  | nanomolar range | 13 ± 1
CC(=O)[C@H]1CC[C@H]2[C@@H]3CCC4=CC(=O)CC[C@]4(C)[C@H]3CC[C@]12C [progesterone] |  |  |  | 15000 ± 3000
C[C@]12CC[C@H]3[C@@H](CCC4=CC(=O)CC[C@@]43C)[C@@H]1CC[C@@H]2O [testosterone] |  |  |  | 23000 ± 4000
